This is an account of results in article PMC6892925, “Development of Novel Silyl Cyanocinnamic Acid Derivatives as Metabolic Plasticity Inhibitors for Cancer Treatment” (Scientific Reports, 2019).

The structures appear in SMILES notation. Entries after “also recorded” stand apart in the source; their conditions may differ.

Holding throughout (assay type): cell-based, human
For experiment [1], the system named is WiDr cells. Nature of the experiment: Mitotracker Red CMXROS fluorescent microscopy. The settings on record: 30 μM, 24-hour exposure. The procedure:
(§1) To evaluate the effects on mitochondrial morphology and vitality, Mitotracker Red CMXROS (MTR) fluorescence imaging experiments were employed. […] Furthermore, differential interference contrast (DIC) microscope images illustrate substantial membrane blebbing and vesiculation in compound treated cultures (Fig. 6).
(§2) MDA-MB-231 or WiDr cells (5 × 10^4 cells/mL) were seeded in glass-bottom dishes (MatTek Corp, part no. P35G010C) and incubated for 48 hours. Test compound (30 μM) was added and cells were again incubated for 24 hours prior to fluorescent microscopic imaging. In some cultures, MitoTracker Red CMXROS (Invitrogen, M7512, 100 nM) was added 15 min prior to imaging. The growth media was removed and replaced with 5% FBS in 1X PBS for imaging. Cells were then examined and photographed using a Nikon TE2000 epifluorescent microscope and camera. The images shown are representative of at least 3 fields of view of three separate experiments.

Experiment [2] deals with MDA-MB-231 cells. The experiment is described as follows: Mitotracker Red CMXROS fluorescent microscopy. The settings on record: 30 μM, 24-hour exposure. The procedure:
as §1, §2

Experiment [3] relates to WiDr cells. Nature of the experiment: Western blot analysis of cell damage and death markers. The conditions noted are these: WiDr. As for the experimental part: (§3) Owing to the enhanced antiproliferative effects induced by test compound 2a when compared to CHC, western blot analysis of cell damage and death markers was performed. The master transcription factor p53 regulates the expression of numerous genes involved in cancer progression and is responsible for balancing proliferation and apoptosis. In this regard, we evaluated the effects of compound treatment on p53 expression. Literature reports indicate that MDA-MB-231 and WiDr cells express distinct homozygous mutant forms of p53 that promote an aggressive malignant phenotype with resistance to apoptosis[36],[37]. […] Further, PARP1 is involved in the DNA repair pathway through sensing DNA-strand breaks and recruiting repair enzymes. Importantly, PARP1 is a target of caspase cleavage under apoptotic conditions, and the appearance of the PARP1 cleavage product is a widely used indicator of cellular apoptosis. […] Additionally, DNA damage may be a downstream effect of apoptotic nuclease activity or an increase in reactive oxygen species (ROS) from damaged mitochondria; as illustrated in microscopy and seahorse experiments. Histone 2AX phosphorylation (γH2AX) resulting from DNA single- and double-strand breaks is a widely employed marker for DNA damage. In this regard, we investigated the effect of 2a on DNA damage marker γH2AX (phosphorylated Ser139, histone H2AX) with a phospho-specific antibody. […] Due to the potential of ROS leading to DNA damage and H2AX phosphorylation, we investigated the ability of antioxidant N-acetyl cysteine (NAC) to inhibit DNA damage of compound 2a as evidenced by H2AX phosphorylation in the highly oxidative cell line WiDr (Fig. 4A).
(§4) 50,000 WiDr or MDA-MB-231 cells were seeded in 100 mm dishes and were incubated for 48 hours. Cells were then treated with test compounds for 24 hours, washed twice with 1X PBS, solubilized in 200 μL SDS boiling buffer (5% w/v SDS, 10% v/v glycerol, and 60 mM Tris pH 6.8), and sonicated. The resulting cell lysate was then assayed for protein using the Pierce BCA protocol. A volume of test sample containing 10 μg protein was loaded on SDS PAGE gel for electrophoresis according to manufacturer’s instructions. Proteins were transferred from the gel to nitrocellulose membrane according to the manufacturer’s instructions. Membranes were blocked for 1 hr at 35 °C using 10% (w/v) non-fat milk in PBST and were exposed to primary antibody. PARP1 (rabbit polyclonal IgG, Origene, TA321555), p53 (rabbit polyclonal IgG, Santa Cruz, sc50329), and γ-H2AX (Upstate 05-636, 1:2500) were detected and visualized using HRP chemiluminescence. For relative quantitation, β-actin (mouse monoclonal IgG C4, Millipore, MAB1501, 1:10,000) and GAPDH (mouse monoclonal IgG, Santa Cruz, sc47724, 1:100) were detected and measured as a control protein.

The subject of experiment [4] is MDA-MB-231 cells. Described as above. The procedure: as §3, §4

Consider `CC(C)(C)[Si](Oc1ccc(/C=C(\C#N)C(=O)O)cc1)(c1ccccc1)c1ccccc1` [2a], for which the “MTR fluorescence / mitochondrial morphology” value in experiment [1] is “more diffuse and dim general cytoplasmic fluorescence; also recorded: substantial redistribution of MTR”; in experiment [2], “more diffuse and dim general cytoplasmic fluorescence; also recorded: substantial redistribution of MTR”. Besides, the PARP1 cleavage entry is given as “induced PARP1 cleavage” in experiment [3] (100 μM, 24 hours) and “induced PARP1 cleavage” in experiment [4] (100 μM, 24 hours). Besides, the “expression of γH2AX (DNA damage marker)” value is on record as “substantial increases” in experiment [3] (100 μM, 24 hours) and “substantial increases” in experiment [4] (100 μM, 24 hours). The figures for the p53 expression result in experiment [3] (24 hours treatment) and in experiment [4] (24 hours treatment) were “not in WiDr” and “increase in p53 expression”, respectively.
